Reference: patent publication US8802597B2, “Herbicidal pyrimidines” (E I du Pont de Nemours and Company, priority 2003, dated 2014)

Tests used:
Format in all cases: in vivo
[1] = test system: barnyardgrass (Echinochloa crus-galli); experiment: Test A pre/postemergence
Outline: (§1)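 Greenhouse herbicide test with preemergence directed soil spray and postemergence foliar spray at the 1- to 2-leaf stage; visual control rating 0–100 versus untreated at ~10 days.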

[2] = test system: crabgrass (Digitaria sanguinalis); experiment: Test A pre/postemergence
Outline: as §1

[3] = test system: giant foxtail (Setaria faberi); experiment: Test A pre/postemergence
Outline: as §1

[4] = test system: morningglory (Ipomoea spp.); experiment: Test A pre/postemergence
Outline: as §1

[5] = test system: redroot pigweed (Amaranthus retroflexus); experiment: Test A pre/postemergence
Outline: as §1

[6] = test system: velvetleaf (Abutilon theophrasti); experiment: Test A pre/postemergence
Outline: as §1

[7] = test system: bearded (brdd.) sprangletop (Leptochloa fusca ssp. fascicularis); experiment: Test E flooded paddy water application; details: Flood, 21 days, scale 0 to 100 (0 no effect, 100 complete control); for Plant response rating, Sprangletop, Brdd.: 16 g ai/ha
Source text: (§2) Three plastic pots (ca. 16-cm diameter) per rate were partially filled with sterilized Tama silt loam soil comprising a 35:50:15 ratio of sand, silt and clay and 2.6% organic matter. Separate plantings for each of the three pots were as follows. Seeds from the U.S. of ducksalad (Heteranthera limosa), smallflower umbrella sedge (Cyperus difformis) and purple redstem (Ammannia coccinea), were planted into one 16-cm pot for each rate. Seeds from the U.S. of rice flatsedge (Cyperus iria), bearded (brdd.) sprangletop (Leptochloa fusca ssp. fascicularis), one stand of 9 or 10 water seeded rice seedlings (Oryza sativa cv. ‘Japonica-M202’), and one stand of 6 transplanted rice seedlings (Oryza sativa cv. ‘Japonica-M202’) were planted into one 16-cm pot for each rate. Seeds from the U.S. of barnyardgrass (Echinochloa crus-galli), late watergrass (Echinochloa oryzicola), early watergrass (Echinochloa oryzoides) and junglerice (Echinochloa colona) were planted into one 16-cm pot for each rate. Plantings were sequential so that crop and weed species were at the 2.0 to 2.5-leaf stage at time of treatment.
(§3) Potted plants were grown in a greenhouse with day/night temperature settings of 29.5/26.7° C., and supplemental balanced lighting was provided to maintain a 16-hour photoperiod. Test pots were maintained in the greenhouse until test completion.
(§4) At time of treatment, test pots were flooded to 3 cm above the soil surface, treated by application of test compounds directly to the paddy water, and then maintained at that water depth for the duration of the test. Effects of treatments on rice and weeds were visually evaluated by comparison to untreated controls after 21 days. Plant response ratings, summarized in Table E, are based on a scale of 0 to 100 where 0 is no effect and 100 is complete control. A dash (-) response means no test result.

[8] = test system: ducksalad (Heteranthera limosa); experiment: Test E flooded paddy water application; details: Flood, 21 days, scale 0 to 100 (0 no effect, 100 complete control); for Plant response rating, Ducksalad: 16 g ai/ha
Source text: as §2, §3, §4

[9] = test system: early watergrass (Echinochloa oryzoides); experiment: Test E flooded paddy water application; details: Flood, 21 days, scale 0 to 100 (0 no effect, 100 complete control); for Plant response rating, Watergrass, Early: 16 g ai/ha
Source text: as §2, §3, §4

[10] = test system: junglerice (Echinochloa colona); experiment: Test E flooded paddy water application; details: Flood, 21 days, scale 0 to 100 (0 no effect, 100 complete control); for Plant response rating, Junglerice: 16 g ai/ha
Source text: as §2, §3, §4

[11] = test system: late watergrass (Echinochloa oryzicola); experiment: Test E flooded paddy water application; details: Flood, 21 days, scale 0 to 100 (0 no effect, 100 complete control); for Plant response rating, Watergrass, Late: 16 g ai/ha
Source text: as §2, §3, §4

[12] = test system: purple redstem (Ammannia coccinea); experiment: Test E flooded paddy water application; details: Flood, 21 days, scale 0 to 100 (0 no effect, 100 complete control); for Plant response rating, Redstem: 16 g ai/ha
Source text: as §2, §3, §4

[13] = test system: rice flatsedge (Cyperus iria); experiment: Test E flooded paddy water application; details: Flood, 21 days, scale 0 to 100 (0 no effect, 100 complete control); for Plant response rating, Flatsedge, Rice: 16 g ai/ha
Source text: as §2, §3, §4

[14] = test system: smallflower umbrella sedge (Cyperus difformis); experiment: Test E flooded paddy water application; details: Flood, 21 days, scale 0 to 100 (0 no effect, 100 complete control)
Source text: as §2, §3, §4

[15] = test system: transplanted rice seedlings (Oryza sativa cv. ‘Japonica-M202’); experiment: Test E flooded paddy water application; details: Flood, 21 days, scale 0 to 100 (0 no effect, 100 complete control); for Plant response rating, Rice, Transplanted: 16 g ai/ha
Source text: as §2, §3, §4

[16] = test system: water seeded rice seedlings (Oryza sativa cv. ‘Japonica-M202’); experiment: Test E flooded paddy water application; details: Flood, 21 days, scale 0 to 100 (0 no effect, 100 complete control); for Plant response rating, Rice, Water Seeded: 16 g ai/ha
Source text: as §2, §3, §4

[17] = test system: barnyardgrass (Echinochloa crus-galli); experiment: Test E flooded paddy water application; details: Flood, 21 days, scale 0 to 100 (0 no effect, 100 complete control)
Source text: as §2, §3, §4

[18] = Postemergence, 125 g ai/ha, 0 to 100 scale (0 no effect, 100 complete control)
[19] = Postemergence, 500 g ai/ha, 0 to 100 scale (0 no effect, 100 complete control)
[20] = Preemergence, 125 g ai/ha, 0 to 100 scale where 0 is no effect and 100 is complete control, approximately ten days
[21] = Preemergence, 500 g ai/ha, 0 to 100 scale where 0 is no effect and 100 is complete control, approximately ten days

CCOC(=O)c1nc(-c2ccc(F)cc2)nc(N)c1Br [Compound 63]
Plant response rating, Barnyardgrass [1, 18]: 0
Plant response rating, Barnyardgrass [1, 19]: 0
Plant response rating, Barnyardgrass [1, 20]: 0
Plant response rating, Barnyardgrass [1, 21]: 40
Plant response rating, Crabgrass [2, 18]: 0
Plant response rating, Crabgrass [2, 19]: 0
Plant response rating, Crabgrass [2, 20]: 0
Plant response rating, Crabgrass [2, 21]: 75
Plant response rating, Foxtail, Giant [3, 18]: 0
Plant response rating, Foxtail, Giant [3, 19]: 0
Plant response rating, Foxtail, Giant [3, 20]: 0
Plant response rating, Foxtail, Giant [3, 21]: 35
Plant response rating, Morningglory [4, 18]: 20
Plant response rating, Morningglory [4, 19]: 25
Plant response rating, Morningglory [4, 20]: 0
Plant response rating, Morningglory [4, 21]: 0
Plant response rating, Pigweed [5, 18]: 40
Plant response rating, Pigweed [5, 19]: 65
Plant response rating, Pigweed [5, 20]: 0
Plant response rating, Pigweed [5, 21]: 80
Plant response rating, Velvetleaf [6, 18]: 55
Plant response rating, Velvetleaf [6, 19]: 70
Plant response rating, Velvetleaf [6, 20]: 0
Plant response rating, Velvetleaf [6, 21]: 15
Sprangletop, Brdd. plant response rating ([7]; 32 g ai/ha): 0
Sprangletop, Brdd. plant response rating ([7]; 64 g ai/ha): 40
Sprangletop, Brdd. plant response rating ([7]; 125 g ai/ha): 40
Sprangletop, Brdd. plant response rating ([7]; 250 g ai/ha): 65
Plant response rating, Sprangletop, Brdd. [7]: 0
Ducksalad plant response rating ([8]; 32 g ai/ha): 30
Ducksalad plant response rating ([8]; 64 g ai/ha): 65
Ducksalad plant response rating ([8]; 125 g ai/ha): 100
Ducksalad plant response rating ([8]; 250 g ai/ha): 100
Plant response rating, Ducksalad [8]: 30
Watergrass, Early plant response rating ([9]; 32 g ai/ha): 0
Watergrass, Early plant response rating ([9]; 64 g ai/ha): 0
Watergrass, Early plant response rating ([9]; 125 g ai/ha): 0
Watergrass, Early plant response rating ([9]; 250 g ai/ha): 0
Plant response rating, Watergrass, Early [9]: 0
Junglerice plant response rating ([10]; 32 g ai/ha): 0
Junglerice plant response rating ([10]; 64 g ai/ha): 0
Junglerice plant response rating ([10]; 125 g ai/ha): 0
Junglerice plant response rating ([10]; 250 g ai/ha): 30
Plant response rating, Junglerice [10]: 0
Watergrass, Late plant response rating ([11]; 32 g ai/ha): 0
Watergrass, Late plant response rating ([11]; 64 g ai/ha): 0
Watergrass, Late plant response rating ([11]; 125 g ai/ha): 0
Watergrass, Late plant response rating ([11]; 250 g ai/ha): 0
Plant response rating, Watergrass, Late [11]: 0
Redstem plant response rating ([12]; 32 g ai/ha): 65
Redstem plant response rating ([12]; 64 g ai/ha): 65
Redstem plant response rating ([12]; 125 g ai/ha): 75
Redstem plant response rating ([12]; 250 g ai/ha): 75
Plant response rating, Redstem [12]: 65
Flatsedge, Rice plant response rating ([13]; 32 g ai/ha): 75
Flatsedge, Rice plant response rating ([13]; 64 g ai/ha): 75
Flatsedge, Rice plant response rating ([13]; 125 g ai/ha): 85
Flatsedge, Rice plant response rating ([13]; 250 g ai/ha): 85
Plant response rating, Flatsedge, Rice [13]: 60
Sedge, Umbrella plant response rating ([14]; 32 g ai/ha): 75
Sedge, Umbrella plant response rating ([14]; 64 g ai/ha): 75
Sedge, Umbrella plant response rating ([14]; 125 g ai/ha): 75
Sedge, Umbrella plant response rating ([14]; 250 g ai/ha): 80
Plant response rating, Sedge, Umbrella ([14]; 16 g ai/ha): 70
Rice, Transplanted plant response rating ([15]; 32 g ai/ha): 0
Rice, Transplanted plant response rating ([15]; 64 g ai/ha): 0
Rice, Transplanted plant response rating ([15]; 125 g ai/ha): 0
Rice, Transplanted plant response rating ([15]; 250 g ai/ha): 0
Plant response rating, Rice, Transplanted [15]: 0
Rice, Water Seeded plant response rating ([16]; 32 g ai/ha): 0
Rice, Water Seeded plant response rating ([16]; 64 g ai/ha): 0
Rice, Water Seeded plant response rating ([16]; 125 g ai/ha): 20
Rice, Water Seeded plant response rating ([16]; 250 g ai/ha): 30
Plant response rating, Rice, Water Seeded [16]: 0

CCOC(=O)c1nc(-c2ccc(CC)cc2)nc(N)c1Cl [Compound 99]
Plant response rating, Barnyardgrass [1, 18]: 0
Plant response rating, Barnyardgrass [1, 19]: 0
Plant response rating, Barnyardgrass [1, 20]: 0
Plant response rating, Barnyardgrass [1, 21]: 0
Plant response rating, Crabgrass [2, 18]: 0
Plant response rating, Crabgrass [2, 19]: 0
Plant response rating, Crabgrass [2, 20]: 0
Plant response rating, Crabgrass [2, 21]: 0
Plant response rating, Foxtail, Giant [3, 18]: 0
Plant response rating, Foxtail, Giant [3, 19]: 0
Plant response rating, Foxtail, Giant [3, 20]: 0
Plant response rating, Foxtail, Giant [3, 21]: 0
Plant response rating, Morningglory [4, 18]: 0
Plant response rating, Morningglory [4, 19]: 0
Plant response rating, Morningglory [4, 20]: 0
Plant response rating, Morningglory [4, 21]: 0
Plant response rating, Pigweed [5, 18]: 5
Plant response rating, Pigweed [5, 19]: 10
Plant response rating, Pigweed [5, 20]: 0
Plant response rating, Pigweed [5, 21]: 0
Plant response rating, Velvetleaf [6, 18]: 0
Plant response rating, Velvetleaf [6, 19]: 35
Plant response rating, Velvetleaf [6, 20]: 0
Plant response rating, Velvetleaf [6, 21]: 0
Barnyardgrass plant response rating ([17]; 32 g ai/ha): 0
Barnyardgrass plant response rating ([17]; 64 g ai/ha): 0
Barnyardgrass plant response rating ([17]; 125 g ai/ha): 0
Barnyardgrass plant response rating ([17]; 250 g ai/ha): 0
Plant response rating, Barnyardgrass ([17]; 16 g ai/ha): 0
Sprangletop, Brdd. plant response rating ([7]; 32 g ai/ha): 0
Sprangletop, Brdd. plant response rating ([7]; 64 g ai/ha): 0
Sprangletop, Brdd. plant response rating ([7]; 125 g ai/ha): 0
Sprangletop, Brdd. plant response rating ([7]; 250 g ai/ha): 0
Plant response rating, Sprangletop, Brdd. [7]: 0
Ducksalad plant response rating ([8]; 32 g ai/ha): 100
Ducksalad plant response rating ([8]; 64 g ai/ha): 100
Ducksalad plant response rating ([8]; 125 g ai/ha): 100
Ducksalad plant response rating ([8]; 250 g ai/ha): 100
Plant response rating, Ducksalad [8]: 95
Watergrass, Early plant response rating ([9]; 32 g ai/ha): 0
Watergrass, Early plant response rating ([9]; 64 g ai/ha): 0
Watergrass, Early plant response rating ([9]; 125 g ai/ha): 0
Watergrass, Early plant response rating ([9]; 250 g ai/ha): 0
Plant response rating, Watergrass, Early [9]: 0
Junglerice plant response rating ([10]; 32 g ai/ha): 0
Junglerice plant response rating ([10]; 64 g ai/ha): 0
Junglerice plant response rating ([10]; 125 g ai/ha): 0
Junglerice plant response rating ([10]; 250 g ai/ha): 0
Plant response rating, Junglerice [10]: 0
Watergrass, Late plant response rating ([11]; 32 g ai/ha): 0
Watergrass, Late plant response rating ([11]; 64 g ai/ha): 0
Watergrass, Late plant response rating ([11]; 125 g ai/ha): 0
Watergrass, Late plant response rating ([11]; 250 g ai/ha): 0
Plant response rating, Watergrass, Late [11]: 0
Redstem plant response rating ([12]; 32 g ai/ha): 0
Redstem plant response rating ([12]; 125 g ai/ha): 0
Redstem plant response rating ([12]; 250 g ai/ha): 45
Plant response rating, Redstem [12]: 0
Flatsedge, Rice plant response rating ([13]; 64 g ai/ha): 100
Flatsedge, Rice plant response rating ([13]; 125 g ai/ha): 100
Flatsedge, Rice plant response rating ([13]; 250 g ai/ha): 100
Plant response rating, Flatsedge, Rice [13]: 100
Rice, Transplanted plant response rating ([15]; 32 g ai/ha): 0
Rice, Transplanted plant response rating ([15]; 64 g ai/ha): 0
Rice, Transplanted plant response rating ([15]; 125 g ai/ha): 0
Rice, Transplanted plant response rating ([15]; 250 g ai/ha): 20
Plant response rating, Rice, Transplanted [15]: 0
Rice, Water Seeded plant response rating ([16]; 32 g ai/ha): 0
Rice, Water Seeded plant response rating ([16]; 64 g ai/ha): 0
Rice, Water Seeded plant response rating ([16]; 125 g ai/ha): 20
Rice, Water Seeded plant response rating ([16]; 250 g ai/ha): 20
Plant response rating, Rice, Water Seeded [16]: 0
